Assay results reported in article PMC4785615, “Evidence that phospholipase C is involved in the antitumour action of NSC768313, a new thieno[2,3-b]pyridine derivative” (Cancer Cell International, 2016).

Tests used:
A431 cells = assay: Calcium flux assay (EGF-induced, Fluo-4); assay type: cell-based, human; conditions: pre-treatment at 25 and 50 μM, EGF 400 ng/ml
Protocol: A431 cells were plated onto 96 wells until confluent. Cells were loaded with 5 µM Fluo-4 acetoxymethyl ester with 0.003 % pluronic acid and 2.5 mM Probenecid (Molecular Probes) for 30 min at 37 °C, then washed with buffer and incubated for another 30 min. Epidermal growth factor (EGF) (400 ng/ml) was used as an activator. EGF alone or with derivative 3 were added to A431 cells to determine the inhibitory activity on calcium flux of derivative 3, and compared with buffer (negative control) and 1 µg/ml ionomycin (positive control). Fluorescence signal was recorded from the bottom of the plate at 1 s intervals (3 wells per/s) using an EnSpire 2300 Multimode Plate Reader (Perkin-Elmer) at excitation wavelength of 494 nm and emission wavelength of 506 nm (25 °C, 3 mm measurement height, 50 flashes). Baseline fluorescence was recorded for 10 s, after which buffer alone, EGF alone or with drug, was added and fluorescence was captured for a further 45 s. Next, ionomycin was added and fluorescence was recorded for another 45 s. Three independent experiments were performed.

HCT116 = assay: Combination growth inhibition with cytotoxic drugs (Bliss model); assay type: cell-based, human; conditions: HCT116, derivative 3 50 nM plus paclitaxel
Protocol: (§1) As described in detail previously, cell proliferation was measured using a thymidine incorporation assay by seeding 3000 cells in each well using 96 well plates with varying concentrations of inhibitors for 3 days. Experiments were performed in triplicate with a minimum of two experimental repeats. Briefly, ^3H-thymidine (0.04 µCi) was added to each well and incubated for 5 h, after which the cells were gathered onto glass fibre filters using an automated TomTec harvester. Filters were incubated with Betaplate Scint and thymidine incorporation determined with Trilux/Betaplate counter showing the percentage of cells incorporated with ^3H-thymidine into the DNA helix.
(§2) As described previously for everolimus and other inhibitors, we employed the Bliss additivism model to classify the drug combinations as additive, synergistic or antagonistic. A theoretical curve was calculated for combined inhibition using the equation Ebliss = (EA + EB) − (EA × EB), where EA and EB are the fractional inhibitions obtained by drug A alone and drug B alone at specific concentrations. Ebliss is the fractional inhibition that would be expected if the effects of the two drugs were additive. The difference (Bliss) in the experimentally measured fractional inhibition (Expt) and Ebliss are defined as synergism […], additive (Expt = Ebliss), and antagonism […]. Bliss = 0 would indicate the combination is additive; Bliss > 0 would indicate the percentage increase in maximal inhibition above additivity (synergy); and Bliss < 0 would indicate the percentage decrease in maximal inhibition below additivity (antagonism). The data were analysed using a one-way ANOVA coupled with multiple comparisons versus treatment control applying the Holm-Sidak method correction, where p < 0.05 denotes a statistically significant difference.

MDA-MB-231 [1] = assay: as above; assay type: cell-based, human
Protocol: as §1, §2

[2] = Mouse plasma pharmacokinetics; assay type: in vivo; conditions: ip, male CD-1 mice, 10 mg/Kg intraperitoneal
Protocol: (§3) Male CD-1 mice were obtained from Vernon Jansen Unit (University of Auckland) and housed in cages with a 12-hour light/dark cycle and received sterilized food and water ad libitum. Studies and procedures were conducted with prior approval of the Ethics Committee of the University of Auckland (AEC approval number 1190). Derivative 3 was prepared in 20 % HP-β CD as a fine yellow suspension, and administered (at 10 mg/Kg) as intraperitoneal bolus injection. Blood samples were collected via a terminal cardiac bleeding (n = 3 mice/time) at 0.167, 0.5, 1, 2 and 6 h post dose. Blood was collected in ice cold K2-EDTA tubes and kept on ice. All samples were centrifuged at 6500 rpm for 5 min at room temperature, obtained plasma were stored at −80 °C until analysed by LC–MS/MS.
Briefly, plasma samples were assayed for derivative 3 using liquid chromatography-tandem mass spectrometry (LC–MS/MS) method. Briefly, derivative 3 was spiked in the drug mouse plasma to obtain a concentration 0.003, 0.03, 0.3, 3, 10 and 30 µM to construct a calibration curve. Derivative 1 (a structural analogue of 3) was used as an internal standard in LC–MS/MS assay at a concentration of 0.5 μM added to acetonitrile. Drug was extracted from plasma using direct protein precipitation with ice cold acetonitrile (1:4 v/v) and quantified by peak area ratio of 3 versus 1 using a calibration curve prepared with derivative 3 as outlined above. LC–MS/MS used was Agilent 6410b with multimode ion source operated in atmospheric pressure chemical ionization (APCI) positive mode attached to an Agilent 1200 series HPLC system. LC–MS/MS used an Agilent Zorbax SB-C18 column (2.1 × 50 mm, 5 µM, USA) operated at 35 °C, at a flow rate 0.5 mL/min with a gradient consisting of 0.01 % formic acid in MilliQ water (Millipore, USA) and 0.01 % formic acid in 80 % acetonitrile-20 % MilliQ water. The MS1 and MS2 were operated at unit resolution in the multiple reaction monitoring (MRM) mode, monitoring the transition of the protonated molecular ions at m/z 368 to the product ions at m/z 245 for derivative 3 and monitoring the transition of the protonated molecular ions at m/z 372 to the product ions at m/z 245 for derivative 1 (internal standard). […] The lower limit of quantification for derivative 3 in plasma was 0.003 μM.
Mean mouse plasma-time data for derivative 3 was analysed with non-compartmental method using Phoenix WinNonlin 6.2 (Pharsight Corporation, Mountain View, CA) as shown in Table 1.

[3] = Tolerability in mice after intraperitoneal injection; assay type: in vivo; conditions: 10 mg/Kg intraperitoneal injection, 20 % HP-β CD
Protocol: as §3
Derivative 3 was chosen for a small pharmacokinetic study.

[4] = test system: MDA-MB-231 breast cancer cells; assay: Microtubule imaging (anti-tubulin and Hoechst staining); assay type: cell-based, human; conditions: MDA-MB-231, 16 h; for Microtubule arrangement: FITC anti-tubulin staining
Protocol: Cells were grown on a glass slide with and without inhibitors, fixed by 4 % paraformaldehyde, permeabilised by 0.5 % Triton X-PBS and incubated with 5 % BSA/PBS containing FITC-labelled anti-tubulin antibody. Microtubule arrangement was monitored by fluorescence staining of microtubules using anti-tubulin and analysed by fluorescent microscopy using Floid imaging station (460× magnification). Nucleus was stained with 2 μg/ml Hoechst stain (Life Technology) for 10 min at room temperature. Hoechst stain emits blue fluorescence when bound to double strand DNA.

[5] = test system: MDA-MB-231 breast cancer cells; assay: Cell cycle distribution by flow cytometry; assay type: cell-based, human; conditions: MDA-MB-231, 1 μM, 24 h
Protocol: (§4) As described in detail previously, cells (10^6 cells per well) were grown in 6 well plates and incubated with inhibitors for the indicated time. Cells were harvested, washed and resuspended in 1 ml of blocking buffer (1 % FCS/PBS), and incubated with antibody to γ-H2AX (phosphorylated Ser139) (Millipore, USA) in blocking buffer (1:500 dilution) at room temperature for 2 h. Cells were washed, incubated with goat anti-mouse Alex 488 Fab fragment secondary antibody (Invitrogen, New Zealand) (1:400 in blocking buffer for 1 h, at room temperature; dark), washed and resuspended in 1 ml of blocking buffer containing RNase (1 μg/ml) and propidium iodide (PI) (10 μg/ml) for 30 min at room temperature. Cells were analysed in a Becton–Dickinson LSRII and profiles were analysed with ModFit LT 3 software.

[6] = test system: MDA-MB-231 breast cancer cells; assay: DNA damage by γH2AX (flow cytometry, immunoblot); assay type: cell-based, human; conditions: MDA-MB-231, 1 μM, 24 h; for Proportion of cells with high γ-H2AX phosphorylation: basal level 1 %
Protocol: as §4
As described in detail previously cells were grown to log-phase, washed twice with ice-cold PBS, and lysed in SDS lysis buffer according to the manufacturer’s protocol (Cell Signalling Technology, Danvers, MA, USA). Protein concentration was quantified using the BCA protein assay reagent bicinchoninic acid (Sigma, New Zealand). Cell lysates containing 25 μg of protein were separated by SDS-PAGE and transferred to PVDF membranes (Millipore). Membranes were immunoblotted with antibodies against to γ-H2AX (phosphorylated Ser139) (Millipore, USA), and actin (Millipore), using SuperSignalWest Pico (Thermo Scientific, Waltham,MA, USA) chemiluminescence reagents. Antibody reactivity was visualized using the chemiluminescence detection system by Fujifilm Las-3000.

Aqueous solubility = assay type: physicochemical
MDA-MB-468 = assay: Cell proliferation assay (3H-thymidine incorporation, 3 days); assay type: cell-based; conditions: Homo sapiens, 72 h; MDA-MB-468, thymidine incorporation, 3 days treatment; read-out: IC50 (50 % inhibition of growth)
Protocol: (§5) Culture conditions have been described in detail previously; human breast cancer cell lines MCF-7, T47D, MDA-MB-468, MDA-MB-231, human epithelial carcinoma cell line A431 and human colon cancer cell line HCT116 were purchased from the American Type Culture Collection (ATCC). Cells were grown in α-MEM containing 5 % fetal calf serum, insulin/transferrin/selenium supplement, added according to the manufacturer’s instructions (Roche), as well as penicillin/streptomycin (100 U/ml and 100 μg/ml, respectively).
as §1

MCF7 = assay: as above; assay type: cell-based; conditions: Homo sapiens, 72 h, 3 days treatment, read-out: IC50 (50 % inhibition of growth)
Protocol: as §5, §1

MDA-MB-231 [7] = assay: as above; assay type: cell-based; conditions: Homo sapiens, 72 h; MDA-MB-231, thymidine incorporation, 3 days treatment; read-out: IC50 (50 % inhibition of growth)
Protocol: as §5, §1

T47D = assay: as above; assay type: cell-based, human; conditions: 3 days treatment
Protocol: as §5, §1

breast cancer cells = test system: breast cancer cells; design: method as in doi:10.1039/C3MD00290J; conditions: earlier flow cytometry; cited from earlier work

COc1cccc(NC(=O)c2sc3nc4c(cc3c2N)C(=O)CCC4)c1 [derivative 3]
Effect on increase in intracellular calcium levels induced by EGF (A431 cells): no effect
Drug interaction with paclitaxel (Bliss) (HCT116): Synergism
Drug interaction with camptothecin (Bliss) (MDA-MB-231 [1]; MDA-MB-231, derivative 3 50 nM plus camptothecin): only additive effects
Drug interaction with doxorubicin (Bliss) (MDA-MB-231 [1]; MDA-MB-231, derivative 3 50 nM plus doxorubicin): only additive effects
Drug interaction with paclitaxel (Bliss) (MDA-MB-231 [1]; MDA-MB-231, derivative 3 50 nM plus paclitaxel): synergistic effect
half-life ([2]; male, CD-1, mouse, 10 mg/kg, read-out: t1/2 (elimination half-life)): > 240 min
k el ([2]; mouse, 20 % HP-β CD suspension, read-out: Ke (elimination rate constant) (converted)): 4.72e-06 s⁻¹
AUC(0-inf) ([2]; mouse, extrapolated to infinity): 0.19 µM·h
Tmax ([2]; mouse, post injection, read-out: Time of maximal plasma concentration (converted)): 30 min
Cmax ([2]; mouse, read-out: Cmax (maximum concentration in plasma)): 87 nM
AUC(0-t) ([2]; mouse, up to 6 h, read-out: AUC0–6 h): 0.13 µM·h
Tolerability [3]: well tolerated with no acute reaction observed
Cell morphology [4]: membrane blebbing
Microtubule arrangement [4]: No microtubule bundles were observed
Nuclear phenotype ([4]; Hoechst staining): abnormal nuclear phenotype and possessed multinuclear cells
Cell cycle effect [5]: induce G2/M phase cell cycle arrest
DNA damage (γH2AX) [6]: did not initiate DNA damage
Proportion of cells with high γ-H2AX phosphorylation [6]: 4%
Aqueous solubility (Aqueous solubility): poor
IC50 (MDA-MB-468): < 100 nM
IC50 (MCF7): < 100 nM
IC50 (MDA-MB-231 [7]): < 100 nM

Nc1c(C(=O)Nc2cccc3ccccc23)sc2nc3c(cc12)C(=O)CCC3 [derivative 5]
IC50 (50 % inhibition of growth) (T47D): not reached

CC(=O)O[C@H]1C(=O)[C@@]2(C)[C@H]([C@H](OC(=O)c3ccccc3)[C@]3(O)C[C@H](OC(=O)[C@H](O)[C@@H](NC(=O)c4ccccc4)c4ccccc4)C(C)=C1C3(C)C)[C@]1(OC(C)=O)CO[C@@H]1C[C@@H]2O [paclitaxel, reference compound]
Microtubule arrangement [4]: shortened and bundling of microtubules

CC[C@@]1(O)C(=O)OCc2c1cc1n(c2=O)Cc2cc3ccccc3nc2-1 [camptothecin, reference compound]
Proportion of cells with high γ-H2AX phosphorylation [6]: 69%

Nc1c(C(=O)Nc2cccc(Cl)c2)sc2nc3c(cc12)C(=O)CCC3 [derivative 1]
Cell cycle effect (breast cancer cells): caused G2/M arrest
